Laboratory results published in patent US7972793B2, “Methods and compositions for the treatment of psychotic disorders through the identification of the SULT4A1-1 haplotype” (Suregene, LLC, priority 2009, dated 2011).

What was measured:
[1] = tested on: CATIE Caucasian schizophrenia patients; assay: CATIE Phase 1 drug response: change in total PANSS (LOCF), drug switchers, segmented by SULT4A1-1 status; assay type: in vivo, human; conditions: for ≦−20% (number of individuals with this percent change in total PANSS; responders) / ≧−20% (number of individuals with this percent change in total PANSS; non-responders): CATIE Caucasians, LOCF
Text: There are several different metrics for quantifying response in clinical trials of antipsychotic medications. The most commonly used psychometric instrument is the Positive and Negative Syndrome Scale (PANSS), a 30-item semi-quantitative instrument scored by clinical professionals (Kay et al., 1987). The greater the decrease in PANSS score, the better the clinical response. The most direct measure of clinical response is absolute change in PANSS score. In addition to absolute change, the improvement is often reported as a percentage change from baseline PANSS score.
A decrease of at least 20% in total PANSS is one commonly used threshold for response (Leucht et al., 2009).
The design of the CATIE study has been described in detail by others (Lieberman et al., 2005; Stroup et al., 2003). […] A total of 738 subjects consented to provide DNA for genetic study. […] Retrospective genetic analyses, judged to be exempt from human studies requirements by an IRB, were conducted in the current study.
All tested patients were studied using well established clinical endpoints comparing baseline, intermediate, and last observation carried forward (LOCF) for the PANSS scores using CATIE data. LOCF analysis is a commonly used clinical endpoint for clinical trials for neuropsychiatric drugs, with changes in PANSS scores of between negative 20% and negative 30% used as typical endpoints to indicate clinically significant response (Leucht et al., 2009). To remove time on drug as a variable for the CATIE trial, analysis was limited to only those patients who were randomized to a different drug following the initial washout period (drug switchers).
As mentioned previously, the mean change in absolute or percent PANSS provides an important measure of efficacy in patients undergoing antipsychotic treatments. Indeed, many pivotal trials in the psychosis field used absolute and/or percentage change in PANSS Score as the primary endpoint (Leucht et al., 2009). […] Therefore, in addition to examining a categorical definition of clinically significant response, the inventors determined the impact of segmentation by SULT4A1-1 status on the quantitative measure of clinical improvement—delta PANSS.

[2] = tested on: patients, unsegmented populations; conditions: first generation antipsychotics; Davis et al. (2003); cited from earlier work
[3] = Table 16, 20% decrease in PANSS threshold, SULT4A1-1 positive group (sign not given)

OCCOCCN1CCN(C2=Nc3ccccc3Sc3ccccc32)CC1 [Quetiapine]
Mean Difference in Total PANSS Score, Olanzapine vs. labelled drug ([1]; CATIE SULT4A1-1 −): −3.8
Mean Difference in Total PANSS Score, Olanzapine vs. labelled drug ([1]; CATIE unsegmented): −6.2
≦−20% (number of individuals with this percent change in total PANSS; responders) ([1]; SULT4A1-1 Negative): 13
≧−20% (number of individuals with this percent change in total PANSS; non-responders) ([1]; SULT4A1-1 Negative): 50
≦−20% (number of individuals with this percent change in total PANSS; responders) ([1]; SULT4A1-1 Positive): 7
≧−20% (number of individuals with this percent change in total PANSS; non-responders) ([1]; SULT4A1-1 Positive): 11
Non Responder (number) [1, 3]: 11
Responder (number) [1, 3]: 7
Effect Size vs. FGA [2]: 0.01
